Laboratory results as given in patent US20250195484A1, “CEREBLON LIGANDS AND USES THEREOF” (priority 2022, published 2025).

Tests used:
CBP = target: T1, CBP (Homo sapiens, UniProt Q92793); experiment: CBP degradation, western blot, 22Rv1; format: cell-based; details: 22Rv1, 5 h
T1 construct: endogenous in cells; host or cells: 22Rv1
Method: (§1) WesternT Blot Analysis. Western blot analysis was performed essentially as described previously. The cells treated with indicated compounds were lysed in Radioimmunoprecipitation Assay Protein Lysis and Extraction Buffer (25 mmol/L Tris.HCl, pH 7.6, 150 mmol/L NaCl, 1% Nonidet P-40, 1% sodium deoxycholate, and 0.1% sodium dodecyl sulfate) containing proteinase inhibitor cocktail (Roche Diagnostics, Mannheim, Germany). Equal amounts of total protein were electrophoresed through 10% SDS-polyacrylamide gels after determination of protein concentration by BCA assay (Fisher Scientific, Pittsburgh, PA). The separated protein bands were transferred onto PVDF membranes (GE Healthcare Life Sciences, Marlborough, MA) and blotted against different antibodies, as indicated. The blots were scanned, and the band intensities were quantified using GelQuant.NET software provided by biochemlabsolutions.com. The relative mean intensity of target proteins was expressed after normalization to the intensity of glyceraldehyde-3-phosphate dehydrogenase bands.

P300 = target: T2, P300 (Homo sapiens, UniProt Q09472); experiment: P300 degradation, western blot, 22Rv1; format: cell-based; details: 22Rv1, 5 h
T2 construct: endogenous in cells; host or cells: 22Rv1
T2 sequence (Q09472 whole entry): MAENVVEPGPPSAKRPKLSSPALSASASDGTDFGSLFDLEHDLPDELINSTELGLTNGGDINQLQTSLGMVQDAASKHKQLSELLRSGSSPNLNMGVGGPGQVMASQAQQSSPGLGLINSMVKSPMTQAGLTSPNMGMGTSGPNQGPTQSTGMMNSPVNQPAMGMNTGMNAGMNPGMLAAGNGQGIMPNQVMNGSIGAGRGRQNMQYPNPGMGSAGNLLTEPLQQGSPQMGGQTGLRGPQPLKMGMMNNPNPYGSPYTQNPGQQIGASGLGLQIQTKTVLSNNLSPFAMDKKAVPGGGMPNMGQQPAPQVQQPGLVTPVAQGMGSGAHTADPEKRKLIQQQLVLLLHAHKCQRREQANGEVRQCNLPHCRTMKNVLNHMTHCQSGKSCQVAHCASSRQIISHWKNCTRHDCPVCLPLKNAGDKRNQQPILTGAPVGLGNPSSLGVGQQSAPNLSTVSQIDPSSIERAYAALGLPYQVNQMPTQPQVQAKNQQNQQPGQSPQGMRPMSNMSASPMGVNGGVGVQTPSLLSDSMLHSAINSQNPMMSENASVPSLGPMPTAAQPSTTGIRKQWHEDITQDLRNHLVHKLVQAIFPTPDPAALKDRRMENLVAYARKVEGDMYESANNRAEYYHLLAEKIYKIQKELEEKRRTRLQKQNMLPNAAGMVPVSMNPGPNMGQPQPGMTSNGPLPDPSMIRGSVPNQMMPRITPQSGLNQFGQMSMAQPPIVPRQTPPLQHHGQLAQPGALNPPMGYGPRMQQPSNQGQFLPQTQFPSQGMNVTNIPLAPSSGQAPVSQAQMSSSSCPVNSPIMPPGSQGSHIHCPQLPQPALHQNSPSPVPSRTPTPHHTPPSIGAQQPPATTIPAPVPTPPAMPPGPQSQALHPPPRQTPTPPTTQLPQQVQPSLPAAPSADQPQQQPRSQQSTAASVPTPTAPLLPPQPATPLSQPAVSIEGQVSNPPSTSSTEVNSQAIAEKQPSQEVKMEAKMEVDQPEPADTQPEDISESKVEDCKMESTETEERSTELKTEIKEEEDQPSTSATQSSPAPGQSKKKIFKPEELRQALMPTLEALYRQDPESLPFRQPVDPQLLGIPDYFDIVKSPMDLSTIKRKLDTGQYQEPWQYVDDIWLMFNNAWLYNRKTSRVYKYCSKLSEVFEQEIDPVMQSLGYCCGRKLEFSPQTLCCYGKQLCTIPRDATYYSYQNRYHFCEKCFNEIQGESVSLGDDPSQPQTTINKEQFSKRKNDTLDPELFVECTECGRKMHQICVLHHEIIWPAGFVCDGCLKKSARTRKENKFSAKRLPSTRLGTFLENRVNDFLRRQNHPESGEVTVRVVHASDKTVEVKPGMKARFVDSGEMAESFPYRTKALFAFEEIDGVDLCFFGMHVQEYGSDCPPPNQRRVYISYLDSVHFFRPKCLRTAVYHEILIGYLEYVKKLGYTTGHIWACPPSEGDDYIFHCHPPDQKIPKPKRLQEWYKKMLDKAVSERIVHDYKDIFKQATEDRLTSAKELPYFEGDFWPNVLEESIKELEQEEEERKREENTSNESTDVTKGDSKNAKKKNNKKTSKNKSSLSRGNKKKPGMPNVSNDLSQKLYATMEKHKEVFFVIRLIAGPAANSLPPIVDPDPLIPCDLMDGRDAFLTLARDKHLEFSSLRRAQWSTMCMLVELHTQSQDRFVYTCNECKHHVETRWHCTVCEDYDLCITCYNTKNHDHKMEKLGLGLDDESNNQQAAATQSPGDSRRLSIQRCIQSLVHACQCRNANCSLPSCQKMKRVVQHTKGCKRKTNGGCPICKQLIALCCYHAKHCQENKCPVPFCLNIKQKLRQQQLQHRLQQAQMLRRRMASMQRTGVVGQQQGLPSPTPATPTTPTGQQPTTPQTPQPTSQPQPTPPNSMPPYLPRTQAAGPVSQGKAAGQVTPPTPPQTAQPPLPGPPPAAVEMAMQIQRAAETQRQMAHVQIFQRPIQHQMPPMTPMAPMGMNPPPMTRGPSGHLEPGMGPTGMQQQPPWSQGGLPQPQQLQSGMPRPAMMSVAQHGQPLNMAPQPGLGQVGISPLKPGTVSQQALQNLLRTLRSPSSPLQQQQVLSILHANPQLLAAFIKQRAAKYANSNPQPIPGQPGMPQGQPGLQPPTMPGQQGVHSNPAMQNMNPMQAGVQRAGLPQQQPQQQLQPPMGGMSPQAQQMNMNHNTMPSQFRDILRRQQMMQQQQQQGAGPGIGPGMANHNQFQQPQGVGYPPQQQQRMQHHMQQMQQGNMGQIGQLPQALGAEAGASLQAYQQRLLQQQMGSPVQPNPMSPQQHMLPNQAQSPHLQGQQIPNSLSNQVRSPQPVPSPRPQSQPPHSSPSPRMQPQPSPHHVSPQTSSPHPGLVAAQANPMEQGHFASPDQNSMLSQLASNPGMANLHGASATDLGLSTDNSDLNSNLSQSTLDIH
Method: as §1

CRBN/DDB1 = CRBN/DDB1 (Homo sapiens, UniProt Q96SW2); experiment: biochemical
Chain of CRBN/DDB1 (Q96SW2 whole entry): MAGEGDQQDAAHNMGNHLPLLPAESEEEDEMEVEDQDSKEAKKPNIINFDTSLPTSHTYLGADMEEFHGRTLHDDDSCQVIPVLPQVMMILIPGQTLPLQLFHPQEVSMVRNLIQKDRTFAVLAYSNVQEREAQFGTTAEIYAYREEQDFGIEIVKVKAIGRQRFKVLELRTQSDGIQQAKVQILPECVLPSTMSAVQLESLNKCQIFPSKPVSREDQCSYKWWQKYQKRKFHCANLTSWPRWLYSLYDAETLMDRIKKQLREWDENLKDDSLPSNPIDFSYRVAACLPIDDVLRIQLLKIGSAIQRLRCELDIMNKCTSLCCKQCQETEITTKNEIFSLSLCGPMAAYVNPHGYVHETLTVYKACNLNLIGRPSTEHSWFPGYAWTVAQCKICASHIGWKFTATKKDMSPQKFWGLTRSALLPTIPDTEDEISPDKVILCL
Chain of CRBN/DDB1 (Q16531 whole entry, further chain): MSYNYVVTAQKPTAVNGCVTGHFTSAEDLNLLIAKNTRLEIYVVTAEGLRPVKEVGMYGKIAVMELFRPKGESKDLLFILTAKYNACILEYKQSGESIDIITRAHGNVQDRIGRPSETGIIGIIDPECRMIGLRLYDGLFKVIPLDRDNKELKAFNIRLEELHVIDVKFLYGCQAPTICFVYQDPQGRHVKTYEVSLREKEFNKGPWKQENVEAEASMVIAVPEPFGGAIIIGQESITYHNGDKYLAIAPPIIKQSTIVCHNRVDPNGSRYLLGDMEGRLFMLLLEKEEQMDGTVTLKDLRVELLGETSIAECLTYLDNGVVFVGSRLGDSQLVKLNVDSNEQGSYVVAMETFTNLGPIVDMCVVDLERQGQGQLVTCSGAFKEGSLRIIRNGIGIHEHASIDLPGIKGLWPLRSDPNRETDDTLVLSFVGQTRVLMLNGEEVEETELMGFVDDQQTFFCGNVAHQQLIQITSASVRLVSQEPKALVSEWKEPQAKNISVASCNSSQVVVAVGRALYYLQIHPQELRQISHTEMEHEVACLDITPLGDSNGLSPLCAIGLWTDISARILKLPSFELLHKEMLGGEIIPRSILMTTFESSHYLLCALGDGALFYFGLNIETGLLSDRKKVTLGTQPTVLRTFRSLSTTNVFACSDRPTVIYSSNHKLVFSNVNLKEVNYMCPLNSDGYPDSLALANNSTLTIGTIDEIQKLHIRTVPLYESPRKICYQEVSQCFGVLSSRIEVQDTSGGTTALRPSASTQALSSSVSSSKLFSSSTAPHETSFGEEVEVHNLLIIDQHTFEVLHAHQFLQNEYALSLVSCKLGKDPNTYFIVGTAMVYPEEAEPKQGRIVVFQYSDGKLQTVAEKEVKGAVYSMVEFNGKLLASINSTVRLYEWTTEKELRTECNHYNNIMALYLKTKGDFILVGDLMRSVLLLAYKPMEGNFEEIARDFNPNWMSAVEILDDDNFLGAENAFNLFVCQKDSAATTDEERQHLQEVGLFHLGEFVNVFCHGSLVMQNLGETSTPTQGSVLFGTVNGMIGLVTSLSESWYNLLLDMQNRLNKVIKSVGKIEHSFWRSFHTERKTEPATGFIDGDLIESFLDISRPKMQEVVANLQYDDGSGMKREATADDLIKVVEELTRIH

STAT3 = target: T3, STAT3 (Homo sapiens, UniProt P40763); experiment: STAT3 degradation HiBiT assay (STAT3-HIBIT KI HeLa); format: cell-based; details: STAT3-HIBIT KI HeLa cells, 24 hours
T3 construct: host or cells: HeLa (STAT3-HiBiT CRISPR knock-in clone)
T3 sequence (P40763 whole entry): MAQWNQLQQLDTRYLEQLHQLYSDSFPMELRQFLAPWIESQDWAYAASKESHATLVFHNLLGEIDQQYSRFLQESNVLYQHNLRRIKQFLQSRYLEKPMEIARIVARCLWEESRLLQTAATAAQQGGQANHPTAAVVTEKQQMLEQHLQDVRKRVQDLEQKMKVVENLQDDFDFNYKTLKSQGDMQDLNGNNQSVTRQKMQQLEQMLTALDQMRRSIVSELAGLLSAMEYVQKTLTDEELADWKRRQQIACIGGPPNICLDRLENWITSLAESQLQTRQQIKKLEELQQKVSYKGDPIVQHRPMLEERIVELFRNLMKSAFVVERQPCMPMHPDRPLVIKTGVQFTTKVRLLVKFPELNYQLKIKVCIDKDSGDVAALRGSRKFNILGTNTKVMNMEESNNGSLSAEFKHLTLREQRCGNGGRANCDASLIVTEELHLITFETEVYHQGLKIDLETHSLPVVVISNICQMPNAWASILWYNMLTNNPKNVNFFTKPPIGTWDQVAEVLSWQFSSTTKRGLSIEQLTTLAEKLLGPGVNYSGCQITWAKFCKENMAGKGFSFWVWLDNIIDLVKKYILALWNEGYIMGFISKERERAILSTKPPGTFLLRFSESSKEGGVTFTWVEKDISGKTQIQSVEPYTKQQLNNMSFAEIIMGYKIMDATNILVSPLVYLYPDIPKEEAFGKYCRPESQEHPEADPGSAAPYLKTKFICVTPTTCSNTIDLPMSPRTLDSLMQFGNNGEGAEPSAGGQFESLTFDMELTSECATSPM
Method: STAT3-HIBIT KI HeLa cell line was purchased from Promega. This cell line is a clone created by using CRISPR-Cas9 to fuse HiBIT to the 3′ end of STAT3 in HeLa cells. DMEM medium and FBS were purchased from Gibco/Thermo Fisher Scientific. STAT3 degradation was determined based on quantification of luminescent signal using Nano-Glo HiBIT Lytic Detection System. In a typical procedure, cells seeded at 20000 cells per well in 96-well white plates (Corning) were incubated with serially diluted compounds for 24 hours at 37° C. with 5% CO2. At the end of treatment, Nano-Glo HiBIT Lytic Detection reagents was added to the wells and luminescence was acquired on TECAN PSARK plate reader. Untreated cells were used as control. Data points were fit with a four-parameter equation to generate a concentration-response curve. IC50 values were calculated using a nonlinear regression analysis of the mean±SD from triplicate.

SU-DHL-1 = experiment: Cell viability assay (CellTiter-Glo 2.0), SU-DHL-1; format: cell-based; details: Homo sapiens, 96 h; SU-DHL-1 cells, 4 days
Method: SU-DHL-1 and SUP-M2 cell viability was determined by CellTiter-Glo 2.0 Cell Viability Assay (Promega). […] In a typical procedure, cells seeded at 1000 cells per well in 384-well white plates (Corning) were incubated with serially diluted compounds for 4 days at 37° C. with 5% CO2. At the end of treatment, CellTiter-Glo 2.0 was added to the wells and luminescence was acquired on TECAN PSARK plate reader. Untreated cells were used as control. Data points were fit with a four-parameter equation to generate a concentration-response curve. IC50 values were calculated using a nonlinear regression analysis of the mean±SD from triplicate.

MOLM-16 = experiment: Cell viability assay (CellTiter-Glo 2.0), MOLM-16; format: cell-based; details: MOLM16; MOLM-16 cells

Row | Compound | CBP Degradation DCmax (CBP) | DC50 (CBP) [µM] | DC50 (P300) [µM] | P300 Degradation DCmax (P300) | IC50 (CRBN/DDB1) [µM] | DC50 (STAT3) [µM] | Dmax (STAT3) [%] | IC50 (SU-DHL-1) [µM] | IC50 (MOLM-16) [µM]
1 | CC(=O)N1CCc2c(c(N3CCCc4cc(-c5cnn(C)c5)c(C(F)F)cc43)nn2C2CCN(CC(=O)N3CCC4(CC3)COc3c4ccc4c3CN([C@H]3CCC(=O)NC3=O)C4=O)CC2)C1 [CPD-001, (S)-3-(1′-(2-(4-(5-acetyl-3-(7-(difluoromethyl)-6-(1-methyl-1H-pyrazol-4-yl)-3,4-dihydroquinolin-1(2H)-yl)-4,5,6,7-tetrahydro-1H-pyrazolo[4,3-c]pyridin-1-yl)piperidin-1-yl)acetyl)-6-oxo-6,8-dihydro-2H,7H-spiro[furo[2,3-e]isoindole-3,4′-piperidin]-7-yl)piperidine-2,6-dione] | A (A (≥90%)) | < 0.0001 | 0.0001 to 0.001 | A (A (≥90%)) | – | – | – | – | –
2 | CC(=O)N1CCc2c(c(N3CCCc4cc(-c5cnn(C)c5)c(C(F)F)cc43)nn2C2CCN(C(=O)CN3CCC4(CC3)COc3c4ccc4c3CN([C@H]3CCC(=O)NC3=O)C4=O)CC2)C1 [CPD-002, (S)-3-(1′-(2-(4-(5-acetyl-3-(7-(difluoromethyl)-6-(1-methyl-1H-pyrazol-4-yl)-3,4-dihydroquinolin-1(2H)-yl)-4,5,6,7-tetrahydro-1H-pyrazolo[4,3-c]pyridin-1-yl)piperidin-1-yl)-2-oxoethyl)-6-oxo-6,8-dihydro-2H,7H-spiro[furo[2,3-e]isoindole-3,4′-piperidin]-7-yl)piperidine-2,6-dione] | A (A (≥90%)) | < 0.0001 | < 0.0001 | A (A (≥90%)) | – | – | – | – | –
3 | CC(=O)N1CCc2c(c(N3CCCc4cc(-c5cnn(C)c5)c(C(F)F)cc43)nn2C2CCC(N3CCC4(CC3)COc3c4ccc4c3CN([C@H]3CCC(=O)NC3=O)C4=O)CC2)C1 (stereo partly drawn) [CPD-003, (S)-3-(1′-(4-(5-acetyl-3-(7-(difluoromethyl)-6-(1-methyl-1H-pyrazol-4-yl)-3,4-dihydroquinolin-1(2H)-yl)-4,5,6,7-tetrahydro-1H-pyrazolo[4,3-c]pyridin-1-yl)cyclohexyl)-6-oxo-6,8-dihydro-2H,7H-spiro[furo[2,3-e]isoindole-3,4′-piperidin]-7-yl)piperidine-2,6-dione] | A (A (≥90%)) | < 0.0001 | < 0.0001 | A (A (≥90%)) | – | – | – | – | –
4 | CC(=O)N1CCc2c(c(N3CCCc4cc(-c5cnn(C)c5)c(C(F)F)cc43)nn2[C@H]2CC[C@H](CN3CCC4(CC3)COc3c4ccc4c3CN([C@H]3CCC(=O)NC3=O)C4=O)CC2)C1 [CPD-004, (S)-3-(1′-(((1r,4S)-4-(5-acetyl-3-(7-(difluoromethyl)-6-(1-methyl-1H-pyrazol-4-yl)-3,4-dihydroquinolin-1(2H)-yl)-4,5,6,7-tetrahydro-1H-pyrazolo[4,3-c]pyridin-1-yl)cyclohexyl)methyl)-6-oxo-6,8-dihydro-2H,7H-spiro[furo[2,3-e]isoindole-3,4′-piperidin]-7-yl)piperidine-2,6-dione] | A (A (≥90%)) | < 0.0001 | < 0.0001 | A (A (≥90%)) | – | – | – | – | –
5 | CC(=O)N1CCc2c(c(N3CCCc4cc(-c5cnn(C)c5)c(C(F)F)cc43)nn2[C@H]2CC[C@H](C(=O)N3CCC4(CC3)COc3c4ccc4c3CN([C@H]3CCC(=O)NC3=O)C4=O)CC2)C1 [CPD-005, (S)-3-(1′-((1r,4S)-4-(5-acetyl-3-(7-(difluoromethyl)-6-(1-methyl-1H-pyrazol-4-yl)-3,4-dihydroquinolin-1(2H)-yl)-4,5,6,7-tetrahydro-1H-pyrazolo[4,3-c]pyridin-1-yl)cyclohexane-1-carbonyl)-6-oxo-6,8-dihydro-2H,7H-spiro[furo[2,3-e]isoindole-3,4′-piperidin]-7-yl)piperidine-2,6-dione] | A (A (≥90%)) | < 0.0001 | < 0.0001 | A (A (≥90%)) | – | – | – | – | –
6 | CC(=O)N1CCc2c(c(N3CCCc4cc(-c5cnn(C)c5)c(C(F)F)cc43)nn2[C@H]2CC[C@@H](C(=O)N3CCC4(CC3)COc3c4ccc4c3CN([C@H]3CCC(=O)NC3=O)C4=O)CC2)C1 [CPD-006, (S)-3-(1′-((1s,4R)-4-(5-acetyl-3-(7-(difluoromethyl)-6-(1-methyl-1H-pyrazol-4-yl)-3,4-dihydroquinolin-1(2H)-yl)-4,5,6,7-tetrahydro-1H-pyrazolo[4,3-c]pyridin-1-yl)cyclohexane-1-carbonyl)-6-oxo-6,8-dihydro-2H,7H-spiro[furo[2,3-e]isoindole-3,4′-piperidin]-7-yl)piperidine-2,6-dione] | A (A (≥90%)) | < 0.0001 | 0.0001 to 0.001 | A (A (≥90%)) | – | – | – | – | –
7 | COc1cc2c(c3c1C(=O)N([C@H]1CCC(=O)NC1=O)C3)OCC21CCNCC1 [Compound A21, (S)-3-(5-methoxy-6-oxo-6,8-dihydro-2H,7H-spiro[furo[2,3-e]isoindole-3,4′-piperidin]-7-yl)piperidine-2,6-dione] | – | – | – | – | 0.17 | – | – | – | –
8 | COc1cc2c(c3c1C(=O)N([C@@H]1CCC(=O)NC1=O)C3)OCC21CCNCC1 [Compound A22, (R)-3-(5-methoxy-6-oxo-6,8-dihydro-2H,7H-spiro[furo[2,3-e]isoindole-3,4′-piperidin]-7-yl)piperidine-2,6-dione] | – | – | – | – | 3.9 | – | – | – | –
9 | NC(=O)CC[C@H](NC(=O)[C@@H]1CC[C@@H]2CCN(C(=O)CCCCC(=O)N3CCC4(CC3)COc3c4ccc4c3CN([C@H]3CCC(=O)NC3=O)C4=O)C[C@H](NC(=O)c3cc4cc(C(F)(F)P(=O)(O)O)ccc4s3)C(=O)N21)C(=O)NC(c1ccccc1)c1ccccc1 [STD 22, ((2-(((5S,8S,10aR)-8-(((S)-5-amino-1-(benzhydrylamino)-1,5-dioxopentan-2-yl)carbamoyl)-3-(6-(7-((S)-2,6-dioxopiperidin-3-yl)-6-oxo-7,8-dihydro-2H,6H-spiro[furo[2,3-e]isoindole-3,4′-piperidin]-1′-yl)-6-oxohexanoyl)-6-oxodecahydropyrrolo[1,2-a][1,5]diazocin-5-yl)carbamoyl)benzo[b]thiophen-5-yl)difluoromethyl)phosphonic acid] | – | – | – | – | – | 1 to 10 | < 40 | – | –
10 | CS(=O)(=O)c1cccc(OC[C@H](CCC(N)=O)NC(=O)[C@@H]2CC[C@@H]3CCN(C(=O)CCN4CCC5(CC4)COc4c5ccc5c4CN([C@H]4CCC(=O)NC4=O)C5=O)C[C@H](NC(=O)c4cc5cc(C(F)(F)P(=O)(O)O)ccc5s4)C(=O)N32)c1 [STD 69, ((2-(((5S,8S,10aR)-8-(((S)-5-amino-1-(3-(methylsulfonyl)phenoxy)-5-oxopentan-2-yl)carbamoyl)-3-(3-(7-((S)-2,6-dioxopiperidin-3-yl)-6-oxo-7,8-dihydro-2H,6H-spiro[furo[2,3-e]isoindole-3,4′-piperidin]-1′-yl)propanoyl)-6-oxodecahydropyrrolo[1,2-a][1,5]diazocin-5-yl)carbamoyl)benzo[b]thiophen-5-yl)difluoromethyl)phosphonic acid] | – | – | – | – | – | 1 to 10 | 60 to 80 | 1 to 10 | 1 to 10
11 | NC(=O)CC[C@H](NC(=O)[C@@H]1CC[C@@H]2CCN(C(=O)CCCCN3CCC4(CC3)COc3c4ccc4c3CN([C@H]3CCC(=O)NC3=O)C4=O)C[C@H](NC(=O)c3cc4cc(C(F)(F)P(=O)(O)O)ccc4s3)C(=O)N21)C(=O)NCc1cccc(Cl)c1 [STD 70, ((2-(((5S,8S,10aR)-8-(((S)-5-amino-1-((3-chlorobenzyl)amino)-1,5-dioxopentan-2-yl)carbamoyl)-3-(5-(7-((S)-2,6-dioxopiperidin-3-yl)-6-oxo-7,8-dihydro-2H,6H-spiro[furo[2,3-e]isoindole-3,4′-piperidin]-1′-yl)pentanoyl)-6-oxodecahydropyrrolo[1,2-a][1,5]diazocin-5-yl)carbamoyl)benzo[b]thiophen-5-yl)difluoromethyl)phosphonic acid] | – | – | – | – | – | 0.1 to 1 | ≥ 80 | 1 to 10 | 1 to 10
